Measured values reported in patent publication US20220401482A1, “GENERATION OF CD38 KNOCK-OUT PRIMARY AND EXPANDED HUMAN NK CELLS” (RESEARCH INSTITUTE AT NATIONWIDE CHILDREN'S HOSPITAL, priority 2019, published 2022).

How the values were obtained:
H929 cell line = test: Flow-based cytotoxicity assay; type: cell-based, human; conditions: absence of NK cells and complement, DARA 10 μg/ml, 4 hours
Description: FIGS. 11A-11D show resistance of CD16^KO NK cells to DARA-induced fratricide.
(§1) To assess ADCC, MM cell lines or purified primary CD138^+ MM cells were labeled with 5 μM of CFSE and co-cultured with CD38^WT or CD38^KO NK cells at the indicated effector-to-target (E:T) ratios in flat bottom 96-well plates (Falcon, USA) in the presence of 10 μg/ml of DARA or solvent as control^38. […] The viability of target cells was analyzed after 4 hours for MM cell lines, and 24 hours for primary samples. In some experiments, myeloma cell lines were pretreated with 50 nM of ATRA for 2 days prior to 4-hour cytotoxicity assay. To study the effect of ATRA on overall DARA-mediated NK cell cytotoxicity, MM cells and NK cells were co-cultured for 48 hours in the presence of DARA and 50 nM of ATRA. Viable target cells were assessed from the percent or absolute number of 7-AAD negative/CFSE positive cells among total CFSE positive cells or using beads. Background was determined from the target cells incubated in the absence of effector cells and DARA. The percentage of DARA-mediated ADCC (%) was calculated according to the formula: (1−the percent or absolute number of viable target cells in the presence of effector cells with DARA/that of the corresponding sample with solvent control)×100. All assays were performed in triplicate with 2 or 3 independent donors.

NK cells [1] = conditions: patients; cited from earlier work
CD38 on NK cells [2] = test: CD38 expression on NK cells after ex vivo ATRA; type: cell-based, human; conditions: 50 nM, 48 hours
Description: (§2) FIGS. 15A-15B show cytotoxicity and DARA-mediated ADCC activity of paired CD38^WT and CD38^KO NK cells against myeloma cell lines pretreated with 50 nM ATRA for 48 hours (mean±SD). […] Frozen peripheral blood mononuclear cells were thawed and analyzed at once. […] Control and ATRA treated samples are shown with black and gray line respectively. Unstained controls are depicted with filled histogram. […] FIGS. 15F-15G Cytotoxicity and DARA-mediated ADCC activity of paired CD38^WT and CD38^KO NK cells against myeloma cell lines in a 48 hour-cytotoxicity assay in the presence of 50 nM ATRA or solvent control. E:T ratio is 0.25:1 for MM.1S and 0.5:1 for KMS-11 (mean±SD).

NK cells [3] = test: NK cell fratricide assay (viability of NK cells treated with anti-CD38 antibody); type: cell-based, human; conditions: DARA 48 hours with 50 nM ATRA
Description: NK function assays. NK cell conjugation assay was performed as previously published and as detailed above. […] Flow-based killing assays were performed as detailed in Supplemental Methods. In brief, CD38^WT or CD38^KO NK cells were co-cultured with CFSE-labeled target MM cells for 4 or 24 hours in the presence of 10 μg/ml of DARA or solvent as control.
[…] Viable NK cells (PO-PRO™-1 negative/7-AAD negative) were assessed based on the frequency or absolute number using beads (Becton Dickinson Biosciences).

CD38 on MM cell lines = test: CD38 expression on MM cell lines after ATRA; type: cell-based, human; conditions: pretreatment, 50 nM, 48 hours
Source text: Control and ATRA treated samples are shown with black and gray line respectively. Unstained controls are depicted with filled histogram.

CD38 on NK cells [4] = test: CD38 expression on PB-NK of APL patients during ATRA treatment; type: in vivo, human; conditions: consolidation therapy, versus prior to treatment
Description: as §2

MM cell lines = test: Flow-based cytotoxicity / ADCC assay; type: cell-based, human
Description: NK function assays. NK cell conjugation assay was performed as previously published and as detailed above. To quantify fratricide, CD38^WT and CD38^KO NK cells were each treated with 10 μg/ml of DARA or solvent control for 4 or 24 hours, then stained with PO-PRO™-1 dye (Invitrogen, Eugene, Oreg.) and 7-aminoactinomycin D (7-AAD) (Invitrogen, Eugene, Oreg.)^15. Flow-based killing assays were performed as detailed in Supplemental Methods. In brief, CD38^WT or CD38^KO NK cells were co-cultured with CFSE-labeled target MM cells for 4 or 24 hours in the presence of 10 μg/ml of DARA or solvent as control.
as §1

[5] = concurrent treatment of MM and NK cells, 50 nM, 48 hours

## DARA: monoclonal antibody targeting CD38
H929 cell line
  DARA-mediated lysis: no DARA-mediated lysis
NK cells [1]
  persistence of decrease in circulating NK cells after discontinuation of treatment: 3-6 months

## CC1=C(/C=C/C(C)=C/C=C/C(C)=C/C(=O)O)C(C)(C)CCC1 [ATRA, all-trans retinoic acid]
CD38 on NK cells [2]
  CD38 levels on CD38^KO NK cells: not on the paired CD38^KO NK cells
  CD38 levels on CD38^WT NK cells: up-regulates CD38 levels
NK cells [3]
  fratricide of CD38^WT NK cells: enhanced fratricide
CD38 on MM cell lines
  CD38 levels on MM target cells: up-regulates CD38 levels
CD38 on NK cells [4]
  CD38 on PB-NK of patients: significant up-regulation of CD38
MM cell lines; MM cells pretreated with ATRA, both CD38^WT and CD38^KO NK cells
  DARA-mediated ADCC: improves DARA-mediated ADCC
MM cell lines; [5]
  DARA-mediated ADCC of CD38^KO NK cells: no impact
  DARA-mediated ADCC of CD38^WT NK cells: significantly impaired
MM cell lines; concurrent treatment, 50 nM, 48 hours
  direct cytotoxicity of CD38^WT and paired CD38^KO NK cells: significantly reduced direct cytotoxicity
